# What was measured:
# Type in all cases: cell-based
# SMARCA4 = SMARCA4 (Homo sapiens (Human), UniProt P51532); assay: SMARCA4 HiBiT degradation assay in HeLa cells; details: 18 hours; for DC50: read-out: DC50 (SM4-HeLa) SMARCA4 degradation potency; for Dmax: HeLa, read-out: Dmax % (SM4-HeLa) maximum SMARCA4 degradation within the concentrations tested
# Protocol: (§1) HiBiT peptide knock-in of SMARCA2 in LgBiT expressing HEK293T cells was performed by CRISPR-mediated tagging system as described Promega. The homozygous HiBiT knock-in on c-terminus SMARCA2 was confirmed by sanger sequence. SMARCA2-HiBiT knock-in Hela monoclonal cell (CS302366) and SMARCA4-HiBiT knock-in Hela monoclonal cell (CS3023226) were purchased from Promega. The heterozygous HiBiT-knock-in was confirmed by sanger sequence in both SMARCA2-HiBiT and SMARCA4-HiBiT monoclonal cells.
# (§2) Dispense 10 μL aliquot of prepared Hela-SMARCA2-HiBiT or Hela-SMARCA4-HiBiT cells (1:1 ratio of cells:Trypan Blue (#1450013, Bio-Rad)) onto cell counting slide (#145-0011, Bio-Rad) and obtain cell density and cell viability using cell counter (TC20, Bio-Rad). Remove appropriate volume of resuspended cells from culture flask to accommodate 2500 cells/well @ 20 μL/well. Transfer Hela-HiBiT cells to 50 ml conical (#430290, Corning). Spin down at 1000 rpm for 5 min using tabletop centrifuge (SPINCHRON 15, Beckman). Discard supernatant and resuspend cell pellet in modified EMEM (#30-2003, ATCC) cell culture media containing 10% FBS (F2422-500ML, Sigma), and 1×Penicillin/Streptomycin (200 g/1) (30-002-CI, Corning) to a cell density of 125,000 cells/ml. Dispense 20 μL of resuspended Hela-HiBit cells per well in 384-well TC treated plate (#12-565-343, Thermo Scientific) using standard cassette (#50950372, Thermo Scientific) on Multidrop Combi (#5840310, Thermo Scientific) inside laminar flow cabinet. Dispense test compounds onto plates using digital liquid dispenser (D300E, Tecan). Incubate plates in humidified tissue culture incubator @37° C. for 18 hours. Add 20 ul of prepared Nano-Glo® HiBiT Lytic detection buffer (N3050, Promega) to each well of 384-well plate using small tube cassette (#24073295, Thermo Scientific) on Multidrop Combi, incubate @ RT for 30-60 min. Read plates on microplate reader (Envision 2105, PerkinElmer) using 384 well Ultra-Sensitive luminescence mode. Raw data files and compound information reports are swept into centralized data lake and deconvoluted using automated scripts designed by TetraScience, Inc. Data analysis, curve-fitting and reporting done in Dotmatics Informatics Suite using Screening Ultra module.
# SMARCA2 [1] = target: T1, SMARCA2 (Homo sapiens (Human), UniProt P51531); assay: SMARCA2 HiBiT degradation assay in HeLa cells; details: 18 hours; for DC50: read-out: DC50 (SM2-HeLa) SMARCA2 degradation potency; for Dmax: read-out: Dmax % (SM2-HeLa) maximum SMARCA2 degradation within the concentrations tested
# Protocol: as §1, §2
# SMARCA2 [2] = target: T1, SMARCA2; assay: SMARCA2 HiBiT degradation assay in HEK293T cells; details: 293T HiBiT assay, 24 h; for DC50: read-out: DC50 (SM2-293T) SMARCA2 degradation potency; for Dmax: HEK-293T, read-out: Dmax % (SM2-293T) maximum SMARCA2 degradation within the concentrations tested
# Outline: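 Luminescence from endogenous C-terminally HiBiT-tagged SMARCA2 (homozygous knock-in, LgBiT HEK293T) measured after 24 h compound exposure, 11 concentrations in 3-fold steps. DMSO and 1 μM PRT1001728 set 0% and 100%; DC50 fitted by four-parameter logistic model.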
# T1 sequence (P51531 whole entry): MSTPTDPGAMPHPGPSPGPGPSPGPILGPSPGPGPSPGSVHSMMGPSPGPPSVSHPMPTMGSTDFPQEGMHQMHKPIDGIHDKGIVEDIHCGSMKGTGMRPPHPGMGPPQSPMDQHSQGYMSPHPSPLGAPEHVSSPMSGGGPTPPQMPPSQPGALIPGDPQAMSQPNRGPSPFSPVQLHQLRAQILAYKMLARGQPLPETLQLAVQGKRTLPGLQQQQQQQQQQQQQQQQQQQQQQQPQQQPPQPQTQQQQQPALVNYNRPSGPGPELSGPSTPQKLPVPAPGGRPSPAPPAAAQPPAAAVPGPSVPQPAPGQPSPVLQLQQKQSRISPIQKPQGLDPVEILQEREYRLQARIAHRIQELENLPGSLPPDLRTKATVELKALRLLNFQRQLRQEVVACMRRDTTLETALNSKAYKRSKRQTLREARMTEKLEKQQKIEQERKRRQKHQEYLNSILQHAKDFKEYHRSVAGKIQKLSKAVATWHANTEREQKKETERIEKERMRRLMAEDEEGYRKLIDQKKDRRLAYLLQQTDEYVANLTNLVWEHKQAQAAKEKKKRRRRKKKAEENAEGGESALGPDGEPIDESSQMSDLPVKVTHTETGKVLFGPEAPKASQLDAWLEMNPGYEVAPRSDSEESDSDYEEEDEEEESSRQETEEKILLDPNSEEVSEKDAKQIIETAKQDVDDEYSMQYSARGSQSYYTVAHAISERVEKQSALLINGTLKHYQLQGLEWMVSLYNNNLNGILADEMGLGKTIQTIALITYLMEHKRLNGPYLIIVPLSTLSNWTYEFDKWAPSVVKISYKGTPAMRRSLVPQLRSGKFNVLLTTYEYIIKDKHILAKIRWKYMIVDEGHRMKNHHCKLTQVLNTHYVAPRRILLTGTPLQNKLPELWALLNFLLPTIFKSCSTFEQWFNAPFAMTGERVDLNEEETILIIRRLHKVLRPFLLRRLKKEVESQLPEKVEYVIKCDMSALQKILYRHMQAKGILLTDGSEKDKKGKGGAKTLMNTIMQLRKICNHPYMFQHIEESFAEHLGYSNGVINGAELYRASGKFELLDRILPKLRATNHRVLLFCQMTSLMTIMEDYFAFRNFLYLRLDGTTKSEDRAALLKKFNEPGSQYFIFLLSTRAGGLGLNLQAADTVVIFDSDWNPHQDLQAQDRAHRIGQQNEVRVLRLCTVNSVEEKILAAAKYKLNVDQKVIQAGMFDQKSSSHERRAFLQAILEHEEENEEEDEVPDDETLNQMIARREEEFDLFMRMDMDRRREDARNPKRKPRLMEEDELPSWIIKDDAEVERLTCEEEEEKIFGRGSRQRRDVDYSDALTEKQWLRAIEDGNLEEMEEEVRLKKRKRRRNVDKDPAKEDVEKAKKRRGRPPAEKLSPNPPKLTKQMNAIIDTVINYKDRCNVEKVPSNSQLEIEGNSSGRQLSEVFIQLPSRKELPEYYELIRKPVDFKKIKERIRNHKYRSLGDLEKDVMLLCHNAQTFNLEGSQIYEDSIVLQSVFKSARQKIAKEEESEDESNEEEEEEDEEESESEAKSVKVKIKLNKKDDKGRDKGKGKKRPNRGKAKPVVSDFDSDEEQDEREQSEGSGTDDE
# SMARCA4, sequence (P51532 whole entry): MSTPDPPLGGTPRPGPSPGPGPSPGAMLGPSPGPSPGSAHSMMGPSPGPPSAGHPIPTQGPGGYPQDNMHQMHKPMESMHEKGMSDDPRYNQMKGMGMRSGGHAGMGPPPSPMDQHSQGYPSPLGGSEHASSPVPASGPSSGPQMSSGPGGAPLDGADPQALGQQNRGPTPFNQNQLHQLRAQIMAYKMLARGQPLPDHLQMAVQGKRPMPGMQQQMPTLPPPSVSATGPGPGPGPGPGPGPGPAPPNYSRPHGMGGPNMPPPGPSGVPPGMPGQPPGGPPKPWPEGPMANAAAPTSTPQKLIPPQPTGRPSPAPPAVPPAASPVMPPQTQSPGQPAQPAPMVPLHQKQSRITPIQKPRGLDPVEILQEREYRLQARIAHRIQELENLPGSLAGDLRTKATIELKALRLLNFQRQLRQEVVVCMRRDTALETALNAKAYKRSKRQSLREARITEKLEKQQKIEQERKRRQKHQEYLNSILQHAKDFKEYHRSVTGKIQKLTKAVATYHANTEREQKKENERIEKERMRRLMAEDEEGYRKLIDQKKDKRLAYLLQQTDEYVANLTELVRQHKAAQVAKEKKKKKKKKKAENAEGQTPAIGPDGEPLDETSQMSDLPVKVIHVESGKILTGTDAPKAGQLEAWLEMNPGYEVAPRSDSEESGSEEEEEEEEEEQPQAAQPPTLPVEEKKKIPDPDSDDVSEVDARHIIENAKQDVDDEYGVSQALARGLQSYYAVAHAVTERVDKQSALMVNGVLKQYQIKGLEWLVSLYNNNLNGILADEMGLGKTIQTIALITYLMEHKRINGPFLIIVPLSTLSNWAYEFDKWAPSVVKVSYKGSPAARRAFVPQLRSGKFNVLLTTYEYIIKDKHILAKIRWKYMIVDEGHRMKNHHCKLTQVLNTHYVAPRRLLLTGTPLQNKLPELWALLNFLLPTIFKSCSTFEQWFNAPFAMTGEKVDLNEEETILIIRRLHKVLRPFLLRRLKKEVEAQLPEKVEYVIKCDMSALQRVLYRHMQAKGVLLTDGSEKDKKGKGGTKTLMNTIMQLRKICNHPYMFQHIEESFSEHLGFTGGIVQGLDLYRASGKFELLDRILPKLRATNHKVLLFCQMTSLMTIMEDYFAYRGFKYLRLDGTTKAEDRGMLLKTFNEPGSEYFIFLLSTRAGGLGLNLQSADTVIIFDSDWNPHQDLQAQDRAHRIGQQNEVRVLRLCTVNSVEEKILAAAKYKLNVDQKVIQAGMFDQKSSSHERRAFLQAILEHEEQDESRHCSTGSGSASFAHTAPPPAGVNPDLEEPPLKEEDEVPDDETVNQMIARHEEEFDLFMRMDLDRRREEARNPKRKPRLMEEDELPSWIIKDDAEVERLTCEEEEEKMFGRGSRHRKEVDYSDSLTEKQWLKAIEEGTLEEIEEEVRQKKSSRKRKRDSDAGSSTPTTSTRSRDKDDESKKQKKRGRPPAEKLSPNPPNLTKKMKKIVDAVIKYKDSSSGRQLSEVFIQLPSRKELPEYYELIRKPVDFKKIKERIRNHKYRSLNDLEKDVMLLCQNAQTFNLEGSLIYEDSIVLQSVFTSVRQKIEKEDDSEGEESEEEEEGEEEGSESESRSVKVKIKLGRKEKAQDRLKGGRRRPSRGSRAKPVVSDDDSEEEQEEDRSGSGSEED
SMILES,DC50 (SMARCA4) [nM],Dmax (SMARCA4) [%],DC50 (SMARCA2 [1]) [nM],Dmax (SMARCA2 [1]) [%],Dmax % (SM4-HeLa) maximum SMARCA4 degradation within the concentrations tested (SMARCA4),Dmax % (SM2-HeLa) maximum SMARCA2 degradation within the concentrations tested (SMARCA2 [1]),DC50 (SMARCA2 [2]) [nM],Dmax (SMARCA2 [2]) [%]
"Cc1ncsc1-c1ccc([C@H](C)NC(=O)[C@@H]2C[C@@H](O)CN2C(=O)[C@@H](c2cc(OCC(=O)N3CCC(N4CCN5c6cc(-c7ccccc7O)nnc6NC[C@H]5C4)C(C)C3)no2)C(C)C)cc1 (single isomer, unassigned) [Example 30]",< 100,> 75,< 100,> 75,–,–,–,–
"Cc1ncsc1-c1ccc([C@H](C)NC(=O)[C@@H]2C[C@@H](O)CN2C(=O)[C@@H](c2cc(OCCN3CCC(N4CCN5c6cc(-c7ccccc7O)nnc6NCC5(C)C4)C3)no2)C(C)C)cc1 (stereo partly drawn) [Example 72, (2S,4R)-4-hydroxy-1-((2R)-2-(3-(2-(3-(2-(2-hydroxyphenyl)-6a-methyl-5,6,6a,7,9,10-hexahydro-8H-pyrazino[1′,2′:4,5]pyrazino[2,3-c]pyridazin-8-yl)pyrrolidin-1-yl)ethoxy)isoxazol-5-yl)-3-methylbutanoyl)-N-((S)-1-(4-(4-methylthiazol-5-yl)phenyl)ethyl)pyrrolidine-2-carboxamide]",< 100,–,< 100,–,–,–,–,–
"Cc1ncsc1-c1ccc([C@H](C)NC(=O)[C@@H]2C[C@@H](O)CN2C(=O)[C@@H](c2cc(O[C@@H](C)CN3CCC(N4CCN5c6cc(-c7ccccc7O)nnc6NCC5(C)C4)C3)no2)C(C)C)cc1 (stereo partly drawn) [Example 64, (2S,4R)-4-hydroxy-1-((2R)-2-(3-(((2S)-1-(3-(2-(2-hydroxyphenyl)-6a-methyl-5,6,6a,7,9,10-hexahydro-8H-pyrazino[1′,2′:4,5]pyrazino[2,3-c]pyridazin-8-yl)pyrrolidin-1-yl)propan-2-yl)oxy)isoxazol-5-yl)-3-methylbutanoyl)-N-((S)-1-(4-(4-methylthiazol-5-yl)phenyl)ethyl)pyrrolidine-2-carboxamide]",< 100,> 75,< 100,> 75,–,–,–,–
"Cc1ncsc1-c1ccc([C@H](C)NC(=O)[C@@H]2C[C@@H](O)CN2C(=O)[C@@H](c2cc(O[C@@H](C)CN3CCC(CN4CCN5c6cc(-c7ccccc7O)nnc6NC[C@H]5C4)CC3)no2)C(C)C)cc1 [Example 100, (2S,4R)-4-hydroxy-1-((R)-2-(3-(((S)-1-(4-(((S)-2-(2-hydroxyphenyl)-5,6,6a,7,9,10-hexahydro-8H-pyrazino[1′,2′:4,5]pyrazino[2,3-c]pyridazin-8-yl)methyl)piperidin-1-yl)propan-2-yl)oxy)isoxazol-5-yl)-3-methylbutanoyl)-N-((S)-1-(4-(4-methylthiazol-5-yl)phenyl)ethyl)pyrrolidine-2-carboxamide]",< 100,> 75,< 100,> 75,–,–,–,–
"Cc1ncsc1-c1ccc([C@H](C)NC(=O)[C@@H]2C[C@@H](O)CN2C(=O)[C@@H](c2cc(OCCN3CCCC(N4CCN5c6cc(-c7ccccc7O)nnc6NC[C@H]5C4)C3)no2)C(C)C)cc1 (single isomer, unassigned) [Example 41]",< 100,> 75,< 100,> 75,–,–,–,–
"Cc1ncsc1-c1ccc([C@H](C)NC(=O)[C@@H]2C[C@@H](O)CN2C(=O)C(c2cc(O[C@H](C)C(=O)N3CCC(N4CCN5c6cc(-c7ccccc7O)nnc6NC[C@H]5C4)C3)no2)C(C)C)cc1 (stereo partly drawn) [Example 28, (2S,4R)-4-hydroxy-1-(2-(3-(((2R)-1-(3-((S)-2-(2-hydroxyphenyl)-5,6,6a,7,9,10-hexahydro-8H-pyrazino[1′,2′:4,5]pyrazino[2,3-c]pyridazin-8-yl)pyrrolidin-1-yl)-1-oxopropan-2-yl)oxy)isoxazol-5-yl)-3-methylbutanoyl)-N-((S)-1-(4-(4-methylthiazol-5-yl)phenyl)ethyl)pyrrolidine-2-carboxamide]",100 to 1000,≤ 50,< 100,> 75,–,–,–,–
"Cc1ncsc1-c1ccc([C@H](C)NC(=O)[C@@H]2C[C@@H](O)CN2C(=O)[C@@H](c2cc(CCCN(C)CCN3CCN4c5cc(-c6ccccc6O)nnc5NC[C@H]4C3)no2)C(C)C)cc1 [Example 92, (2S,4R)-4-hydroxy-1-((R)-2-(3-(3-((2-((S)-2-(2-hydroxyphenyl)-5,6,6a,7,9,10-hexahydro-8H-pyrazino[1′,2′:4,5]pyrazino[2,3-c]pyridazin-8-yl)ethyl)(methyl)amino)propyl)isoxazol-5-yl)-3-methylbutanoyl)-N-((S)-1-(4-(4-methylthiazol-5-yl)phenyl)ethyl)pyrrolidine-2-carboxamide]",≥ 10000,≤ 50,< 100,> 75,–,–,–,–
"Cc1ncsc1-c1ccc([C@H](C)NC(=O)[C@@H]2C[C@@H](O)CN2C(=O)[C@@H](c2cc(OCCN3CCC(N4CCN5c6cc(-c7ccccc7O)nnc6NC[C@H]5C4)CC3C)no2)C(C)C)cc1 (stereo partly drawn) [Example 54, (2S,4R)-4-hydroxy-1-((2R)-2-(3-(2-(4-((S)-2-(2-hydroxyphenyl)-5,6,6a,7,9,10-hexahydro-8H-pyrazino[1′,2′:4,5]pyrazino[2,3-c]pyridazin-8-yl)-2-methylpiperidin-1-yl)ethoxy)isoxazol-5-yl)-3-methylbutanoyl)-N-((S)-1-(4-(4-methylthiazol-5-yl)phenyl)ethyl)pyrrolidine-2-carboxamide]",< 100,> 75,< 100,> 75,–,–,–,–
"Cc1ncsc1-c1ccc([C@H](C)NC(=O)[C@@H]2C[C@@H](O)CN2C(=O)[C@@H](c2cc(O[C@@H](C)CN3CCC(N4CCN5c6cc(-c7ccccc7O)nnc6NC[C@H]5C4)C3)no2)C(C)C)cc1 (stereo partly drawn) [Example 49, (2S,4R)-4-hydroxy-1-((2R)-2-(3-(((2S)-1-(3-((S)-2-(2-hydroxyphenyl)-5,6,6a,7,9,10-hexahydro-8H-pyrazino[1′,2′:4,5]pyrazino[2,3-c]pyridazin-8-yl)pyrrolidin-1-yl)propan-2-yl)oxy)isoxazol-5-yl)-3-methylbutanoyl)-N-((S)-1-(4-(4-methylthiazol-5-yl)phenyl)ethyl)pyrrolidine-2-carboxamide]",< 100,–,< 100,–,A/A (A = Dmax >75%),A/A (A = Dmax >75%),–,–
"CC(C)[C@@H](C(=O)N1C[C@H](O)C[C@H]1C(=O)N[C@@H](C)c1ccc(C#N)cc1)c1cc(OCCN2CCC(CN3CCN4c5cc(-c6ccccc6O)nnc5NC[C@H]4C3)CC2)no1 [Example 35, (2S,4R)—N-((S)-1-(4-cyanophenyl)ethyl)-4-hydroxy-1-((R)-2-(3-(2-(4-(((S)-2-(2-hydroxyphenyl)-5,6,6a,7,9,10-hexahydro-8H-pyrazino[1′,2′:4,5]pyrazino[2,3-c]pyridazin-8-yl)methyl)piperidin-1-yl)ethoxy)isoxazol-5-yl)-3-methylbutanoyl)pyrrolidine-2-carboxamide]",–,–,–,–,–,–,< 100,> 75
"Cc1ncsc1-c1ccc([C@H](C)NC(=O)[C@@H]2C[C@@H](OC(=O)C(C)C)CN2C(=O)[C@@H](c2cc(OCCN3CCN4c5cc(-c6ccccc6O)nnc5NC[C@H]4C3)no2)C(C)C)cc1 [Example 10, (3R,5S)-1-((R)-2-(3-(2-((S)-2-(2-hydroxyphenyl)-5,6,6a,7,9,10-hexahydro-8H-pyrazino[1′,2′:4,5]pyrazino[2,3-c]pyridazin-8-yl)ethoxy)isoxazol-5-yl)-3-methylbutanoyl)-5-(((S)-1-(4-(4-methylthiazol-5-yl)phenyl)ethyl)carbamoyl)pyrrolidin-3-yl isobutyrate]",–,–,–,–,–,–,< 100,> 75
"Cc1ncsc1-c1ccc([C@H](C)NC(=O)[C@@H]2C[C@@H](O)CN2C(=O)[C@@H](c2cc(CCCN3CCCC(CN4CCN5c6cc(-c7ccccc7O)nnc6NC[C@H]5C4)C3)no2)C(C)C)cc1 (single isomer, unassigned) [Example 88]",–,–,–,–,–,–,< 100,> 75
